The values below come from patent publication US20150246071A1, “TREATMENT COMPOSITIONS” (REOXCYN DISCOVERIES GROUP, INC., priority 2012, published 2015).

Test [1] has as its system NRF2. Put plainly: Western Blot validation of NRF2 nuclear accumulation in HMVEC-L. The conditions noted are these: ASEA 1% at 30, 60, 120 min, H2O2 30 min. It counts as cell-based, human. Here is the method:
(§1) 8. A Western Blot analysis was done on extra-nuclear and intra-nuclear fractions, separated by differential centrifugation, of serum starved HMVEC-L cell cultures exposed to <1% of a composition of the invention compared with a positive hydrogen peroxide control to determine phosphorylation events (oxidant action) in the extra-nuclear fraction and NRF2 (antioxidant transcription) in the intra-nuclear fraction at 0, 30, 60, 90 and 120 min intervals.
(§2) Experimental Methods for Western Blot Validation of NRF2 Nuclear Accumulation: HMVEC-L were treated with 1% of a composition of the invention, nuclear extracts were separated through centrifugal differentiation from the extra-nuclear cytosol at 30, 60 and 120 min and subjected to Western Blot analysis for NRF2. In the Western blot experiment the extra-nuclear fraction was probed for phosphorylated proteins using a combination of anti-phospho serine, threonine and tyrosine antibodies. Virtually all cellular processes are regulated by posttranslational modifications and protein phosphorylation is a prevalent mechanism. […]

The subject of test [2] is phosphorylated proteins (extra-nuclear fraction). Put plainly: Western Blot of protein phosphorylation in extra-nuclear fraction of HMVEC-L. In kind it is cell-based, human. To be noted: composition 1%, H2O2 positive control. On the procedure:
as §1, §2

Take `OO` [H2O2, Hydrogen peroxide]: in test [1], the “NRF2 levels in nuclear extracts (Western Blot)” value is listed as “did not increase”. Moreover, the “phosphorylation of extra-nuclear protein (Western Blot)” value in test [2] is reported as “marked increase”.
